Reference: article PMC6109843, “Novel Quinazolinone Inhibitors of ALK2 Flip between Alternate Binding Modes: Structure–Activity Relationship, Structural Characterization, Kinase Profiling, and Cellular Proof of Concept” (Journal of Medicinal Chemistry, 2018)

How the values were obtained:
Experiment in all cases: DiscoverX scanEDGE kinase panel
Assay type in all cases: binding
Settings in all cases: Cmpd Conc 1000 nM, read-out: % Ctrl
[1] = biological target: T1, TSSK1B (Homo sapiens, UniProt Q9BXA7)
T1 construct: purchased DiscoverX (DiscoveRx) KINOMEscan scanEDGE / KdELECT
Description: (§1) We hypothesized that inhibitors of the normal and flipped modes would display distinct selectivity profiles.
(§2) 1. 16 and 21 kinome selectivity data
(§3) (P – phosphorylated; nP – nonphosphorylated; % Ctrl values show the % of DNAEtagged
(§4) kinase which was not displaced from a solid supported ligand by a test compound relative to
(§5) untreated control, quantified by qPCR).
(§6) Please note: ALKs 1, 2, 3, 4, 5 and 6 are listed by their gene symbols: ACVRL1 (ALK1), ACVR1
(§7) (ALK2), BMPR1A (ALK3), ACVR1B (ALK4), TGFBR1 (ALK5) and BMPR1B (ALK6)
(§8) Cmpd DiscoverX Gene Symbol Entrez Gene Symbol % Ctrl Cmpd Conc (nM)

[2] = biological target: T2, SIK2 (Homo sapiens, UniProt Q9H0K1)
T2 construct: purchased DiscoverX (DiscoveRx) KINOMEscan scanEDGE / KdELECT
Description: as §1, §2, §3, §4, §5, §6, §7, §8

[3] = biological target: T3, AURKB (Homo sapiens, UniProt Q96GD4)
T3 construct: purchased DiscoverX (DiscoveRx) KINOMEscan scanEDGE / KdELECT
Description: as §1, §2, §3, §4, §5, §6, §7, §8

[4] = biological target: T4, MAP3K4 (Homo sapiens, UniProt Q9Y6R4)
T4 construct: purchased DiscoverX (DiscoveRx) KINOMEscan scanEDGE / KdELECT
Description: as §1, §2, §3, §4, §5, §6, §7, §8

[5] = biological target: T5, ERBB4 (Homo sapiens, UniProt Q15303)
T5 construct: purchased DiscoverX (DiscoveRx) KINOMEscan scanEDGE / KdELECT
Description: as §1, §2, §3, §4, §5, §6, §7, §8

[6] = biological target: T6, JNK1 (Homo sapiens, UniProt P45983)
T6 construct: purchased DiscoverX (DiscoveRx) KINOMEscan scanEDGE / KdELECT
Description: as §1, §2, §3, §4, §5, §6, §7, §8

[7] = biological target: T7, PIK3CA (Homo sapiens, UniProt P42336)
T7 construct: purchased DiscoverX (DiscoveRx) KINOMEscan scanEDGE / KdELECT
Description: as §1, §2, §3, §4, §5, §6, §7, §8

[8] = biological target: T8, ERK1 (Homo sapiens, UniProt P27361)
T8 construct: purchased DiscoverX (DiscoveRx) KINOMEscan scanEDGE / KdELECT
Description: as §1, §2, §3, §4, §5, §6, §7, §8

[9] = biological target: T9, AKT2 (Homo sapiens, UniProt P31751)
T9 construct: purchased DiscoverX (DiscoveRx) KINOMEscan scanEDGE / KdELECT
Description: as §1, §2, §3, §4, §5, §6, §7, §8

[10] = biological target: T10, BMPR1A (ALK3) (Homo sapiens, UniProt P36894)
T10 construct: purchased DiscoverX (DiscoveRx) KINOMEscan scanEDGE / KdELECT
Description: as §1, §2, §3, §4, §5, §6, §7, §8

[11] = biological target: T11, FGFR3 (Homo sapiens, UniProt P22607)
T11 construct: purchased DiscoverX (DiscoveRx) KINOMEscan scanEDGE / KdELECT
Description: as §1, §2, §3, §4, §5, §6, §7, §8

[12] = biological target: T12, EGFR (Homo sapiens, UniProt P00533)
T12 construct: purchased DiscoverX (DiscoveRx) KINOMEscan scanEDGE / KdELECT
Description: as §1, §2, §3, §4, §5, §6, §7, §8

[13] = biological target: T13, MLK1 (Homo sapiens, UniProt P80192)
T13 construct: purchased DiscoverX (DiscoveRx) KINOMEscan scanEDGE / KdELECT
Description: as §1, §2, §3, §4, §5, §6, §7, §8

[14] = biological target: T14, MEK2 (Homo sapiens, UniProt P36507)
T14 construct: purchased DiscoverX (DiscoveRx) KINOMEscan scanEDGE / KdELECT
Description: as §1, §2, §3, §4, §5, §6, §7, §8

[15] = biological target: T15, ZAP70 (Homo sapiens, UniProt P43403)
T15 construct: purchased DiscoverX (DiscoveRx) KINOMEscan scanEDGE / KdELECT
Description: as §1, §2, §3, §4, §5, §6, §7, §8

[16] = biological target: T16, KIT(V559D,T670I) (Homo sapiens, UniProt P10721, T670I/V559D)
T16 construct: purchased DiscoverX (DiscoveRx) KINOMEscan scanEDGE / KdELECT
Description: as §1, §2, §3, §4, §5, §6, §7, §8

[17] = biological target: T17, CHEK1 (Homo sapiens, UniProt O14757)
T17 construct: purchased DiscoverX (DiscoveRx) KINOMEscan scanEDGE / KdELECT
Description: as §1, §2, §3, §4, §5, §6, §7, §8

[18] = biological target: T18, PAK2 (Homo sapiens, UniProt Q13177)
T18 construct: purchased DiscoverX (DiscoveRx) KINOMEscan scanEDGE / KdELECT
Description: as §1, §2, §3, §4, §5, §6, §7, §8

[19] = biological target: T19, PIK3C2B (Homo sapiens, UniProt O00750)
T19 construct: purchased DiscoverX (DiscoveRx) KINOMEscan scanEDGE / KdELECT
Description: as §1, §2, §3, §4, §5, §6, §7, §8

[20] = biological target: T20, DCAMKL1 (Homo sapiens, UniProt O15075)
T20 construct: purchased DiscoverX (DiscoveRx) KINOMEscan scanEDGE / KdELECT
Description: as §1, §2, §3, §4, §5, §6, §7, §8

[21] = biological target: T21, KIT(D816H) (Homo sapiens, UniProt P10721, D816H)
T21 construct: purchased DiscoverX (DiscoveRx) KINOMEscan scanEDGE / KdELECT
Description: as §1, §2, §3, §4, §5, §6, §7, §8

[22] = biological target: T22, PLK1 (Homo sapiens, UniProt P53350)
T22 construct: purchased DiscoverX (DiscoveRx) KINOMEscan scanEDGE / KdELECT
Description: as §1, §2, §3, §4, §5, §6, §7, §8

[23] = biological target: T23, IKKEalpha (Homo sapiens, UniProt O15111)
T23 construct: purchased DiscoverX (DiscoveRx) KINOMEscan scanEDGE / KdELECT
Description: as §1, §2, §3, §4, §5, §6, §7, §8

[24] = biological target: T24, MET (Homo sapiens, UniProt P08581)
T24 construct: purchased DiscoverX (DiscoveRx) KINOMEscan scanEDGE / KdELECT
Description: as §1, §2, §3, §4, §5, §6, §7, §8

[25] = biological target: T25, PLK4 (Homo sapiens, UniProt O00444)
T25 construct: purchased DiscoverX (DiscoveRx) KINOMEscan scanEDGE / KdELECT
Description: as §1, §2, §3, §4, §5, §6, §7, §8

[26] = biological target: T26, FYN (Homo sapiens, UniProt P06241)
T26 construct: purchased DiscoverX (DiscoveRx) KINOMEscan scanEDGE / KdELECT
Description: as §1, §2, §3, §4, §5, §6, §7, §8

[27] = biological target: T27, AXL (Homo sapiens, UniProt P30530)
T27 construct: purchased DiscoverX (DiscoveRx) KINOMEscan scanEDGE / KdELECT
Description: as §1, §2, §3, §4, §5, §6, §7, §8

[28] = biological target: T28, JNK3 (Homo sapiens, UniProt P53779)
T28 construct: purchased DiscoverX (DiscoveRx) KINOMEscan scanEDGE / KdELECT
Description: as §1, §2, §3, §4, §5, §6, §7, §8

[29] = biological target: T29, MINK (Homo sapiens, UniProt Q8N4C8)
T29 construct: purchased DiscoverX (DiscoveRx) KINOMEscan scanEDGE / KdELECT
Description: as §1, §2, §3, §4, §5, §6, §7, §8

[30] = biological target: T30, DYRK1B (Homo sapiens, UniProt Q9Y463)
T30 construct: purchased DiscoverX (DiscoveRx) KINOMEscan scanEDGE / KdELECT
Description: as §1, §2, §3, §4, §5, §6, §7, §8

[31] = biological target: T31, RSK2(Kin.Dom.1ENEterminal) (Homo sapiens, UniProt P51812)
T31 construct: RSK2(Kin.Dom.1ENEterminal); purchased DiscoverX (DiscoveRx) KINOMEscan scanEDGE / KdELECT
Description: as §1, §2, §3, §4, §5, §6, §7, §8

[32] = biological target: T32, PCTK1 (Homo sapiens, UniProt Q00536)
T32 construct: purchased DiscoverX (DiscoveRx) KINOMEscan scanEDGE / KdELECT
Description: as §1, §2, §3, §4, §5, §6, §7, §8

[33] = biological target: T33, CDK2 (Homo sapiens, UniProt P24941)
T33 construct: purchased DiscoverX (DiscoveRx) KINOMEscan scanEDGE / KdELECT
Description: as §1, §2, §3, §4, §5, §6, §7, §8

[34] = biological target: T34, NEK7 (Homo sapiens, UniProt Q8TDX7)
T34 construct: purchased DiscoverX (DiscoveRx) KINOMEscan scanEDGE / KdELECT
Description: as §1, §2, §3, §4, §5, §6, §7, §8

[35] = biological target: T35, INSR (Homo sapiens, UniProt P06213)
T35 construct: purchased DiscoverX (DiscoveRx) KINOMEscan scanEDGE / KdELECT
Description: as §1, §2, §3, §4, §5, §6, §7, §8

[36] = biological target: T36, PDPK1 (Homo sapiens, UniProt O15530)
T36 construct: purchased DiscoverX (DiscoveRx) KINOMEscan scanEDGE / KdELECT
Description: as §1, §2, §3, §4, §5, §6, §7, §8

[37] = biological target: T37, IKKEbeta (Homo sapiens, UniProt O14920)
T37 construct: purchased DiscoverX (DiscoveRx) KINOMEscan scanEDGE / KdELECT
Description: as §1, §2, §3, §4, §5, §6, §7, §8

[38] = biological target: T38, SRC (Homo sapiens, UniProt P12931)
T38 construct: purchased DiscoverX (DiscoveRx) KINOMEscan scanEDGE / KdELECT
Description: as §1, §2, §3, §4, §5, §6, §7, §8

[39] = biological target: T39, LCK (Homo sapiens, UniProt P06239)
T39 construct: purchased DiscoverX (DiscoveRx) KINOMEscan scanEDGE / KdELECT
Description: as §1, §2, §3, §4, §5, §6, §7, §8

T13 sequence (P80192 whole entry): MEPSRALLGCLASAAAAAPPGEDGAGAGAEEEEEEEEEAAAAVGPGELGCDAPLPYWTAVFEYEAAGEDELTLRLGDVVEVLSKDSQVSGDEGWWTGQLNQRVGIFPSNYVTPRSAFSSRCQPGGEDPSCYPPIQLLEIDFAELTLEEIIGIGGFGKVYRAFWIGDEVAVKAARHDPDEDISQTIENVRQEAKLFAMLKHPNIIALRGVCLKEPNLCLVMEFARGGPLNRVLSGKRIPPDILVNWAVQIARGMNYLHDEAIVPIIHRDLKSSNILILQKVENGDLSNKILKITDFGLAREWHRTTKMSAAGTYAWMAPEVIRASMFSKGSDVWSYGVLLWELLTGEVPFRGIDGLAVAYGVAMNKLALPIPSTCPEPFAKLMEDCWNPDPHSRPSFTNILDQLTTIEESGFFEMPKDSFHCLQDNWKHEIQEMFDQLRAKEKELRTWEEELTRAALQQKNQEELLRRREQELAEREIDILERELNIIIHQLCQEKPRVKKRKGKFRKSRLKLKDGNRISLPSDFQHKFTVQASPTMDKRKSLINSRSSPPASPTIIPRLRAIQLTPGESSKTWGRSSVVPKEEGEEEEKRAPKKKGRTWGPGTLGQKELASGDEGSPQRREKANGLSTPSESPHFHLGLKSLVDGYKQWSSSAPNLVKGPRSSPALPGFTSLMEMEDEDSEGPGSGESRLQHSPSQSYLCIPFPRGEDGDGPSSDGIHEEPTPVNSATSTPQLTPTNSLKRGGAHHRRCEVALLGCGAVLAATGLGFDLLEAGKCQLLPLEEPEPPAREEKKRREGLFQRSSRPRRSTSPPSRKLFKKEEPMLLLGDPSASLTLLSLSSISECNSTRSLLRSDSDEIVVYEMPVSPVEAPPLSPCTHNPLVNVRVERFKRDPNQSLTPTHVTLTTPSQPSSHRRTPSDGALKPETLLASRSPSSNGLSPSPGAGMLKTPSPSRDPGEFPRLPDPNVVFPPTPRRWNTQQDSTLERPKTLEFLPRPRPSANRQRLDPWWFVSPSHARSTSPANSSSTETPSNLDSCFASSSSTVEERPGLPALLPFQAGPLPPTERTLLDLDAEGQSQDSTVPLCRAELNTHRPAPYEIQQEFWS
T32 sequence (Q00536 whole entry): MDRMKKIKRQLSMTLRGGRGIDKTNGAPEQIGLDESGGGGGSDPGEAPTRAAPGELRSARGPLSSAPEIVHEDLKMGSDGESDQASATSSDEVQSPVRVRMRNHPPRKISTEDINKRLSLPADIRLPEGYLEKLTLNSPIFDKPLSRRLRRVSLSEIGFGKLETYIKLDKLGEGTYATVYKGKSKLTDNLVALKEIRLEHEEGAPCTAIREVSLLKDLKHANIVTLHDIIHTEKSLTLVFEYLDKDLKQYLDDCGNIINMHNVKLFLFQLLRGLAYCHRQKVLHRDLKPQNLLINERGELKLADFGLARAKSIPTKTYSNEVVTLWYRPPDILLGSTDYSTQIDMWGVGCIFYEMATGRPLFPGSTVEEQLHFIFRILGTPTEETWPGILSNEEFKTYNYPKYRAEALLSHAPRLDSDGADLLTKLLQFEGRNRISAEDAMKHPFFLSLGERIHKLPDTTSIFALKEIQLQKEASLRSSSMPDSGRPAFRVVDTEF
T35 sequence (P06213 28-1382): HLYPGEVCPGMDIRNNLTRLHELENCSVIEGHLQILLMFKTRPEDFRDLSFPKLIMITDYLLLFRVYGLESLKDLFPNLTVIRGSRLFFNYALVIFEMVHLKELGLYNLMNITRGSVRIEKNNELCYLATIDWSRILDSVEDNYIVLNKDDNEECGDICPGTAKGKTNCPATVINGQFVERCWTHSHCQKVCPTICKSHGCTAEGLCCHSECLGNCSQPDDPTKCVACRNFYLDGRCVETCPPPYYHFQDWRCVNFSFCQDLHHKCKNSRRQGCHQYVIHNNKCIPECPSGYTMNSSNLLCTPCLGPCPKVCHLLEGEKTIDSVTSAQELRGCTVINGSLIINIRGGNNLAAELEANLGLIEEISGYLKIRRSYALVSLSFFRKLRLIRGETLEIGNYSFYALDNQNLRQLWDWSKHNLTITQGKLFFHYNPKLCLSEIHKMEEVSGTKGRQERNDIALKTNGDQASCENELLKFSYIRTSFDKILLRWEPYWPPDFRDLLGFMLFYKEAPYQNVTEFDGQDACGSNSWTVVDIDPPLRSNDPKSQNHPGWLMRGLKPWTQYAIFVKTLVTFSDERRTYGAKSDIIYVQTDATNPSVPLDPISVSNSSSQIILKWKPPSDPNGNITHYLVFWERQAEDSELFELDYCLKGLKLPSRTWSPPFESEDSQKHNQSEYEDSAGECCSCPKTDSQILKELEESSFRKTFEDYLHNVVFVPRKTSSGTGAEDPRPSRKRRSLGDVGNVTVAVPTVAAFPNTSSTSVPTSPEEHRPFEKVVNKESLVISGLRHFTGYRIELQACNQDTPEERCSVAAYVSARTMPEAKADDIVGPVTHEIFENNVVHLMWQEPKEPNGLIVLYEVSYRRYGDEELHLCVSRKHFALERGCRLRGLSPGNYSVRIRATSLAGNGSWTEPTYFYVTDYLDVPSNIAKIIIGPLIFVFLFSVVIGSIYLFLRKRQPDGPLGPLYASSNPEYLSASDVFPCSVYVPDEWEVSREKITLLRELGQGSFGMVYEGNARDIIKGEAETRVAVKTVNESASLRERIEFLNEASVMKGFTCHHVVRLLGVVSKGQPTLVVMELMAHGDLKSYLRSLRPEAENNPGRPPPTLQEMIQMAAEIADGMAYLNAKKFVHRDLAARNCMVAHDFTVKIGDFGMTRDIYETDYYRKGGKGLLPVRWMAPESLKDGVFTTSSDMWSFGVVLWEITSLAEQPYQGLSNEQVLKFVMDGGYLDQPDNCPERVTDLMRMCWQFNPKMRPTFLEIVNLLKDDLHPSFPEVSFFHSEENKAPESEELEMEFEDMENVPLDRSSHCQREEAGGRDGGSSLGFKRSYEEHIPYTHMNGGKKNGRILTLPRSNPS
T31 sequence (P51812 1-397 limits assumed): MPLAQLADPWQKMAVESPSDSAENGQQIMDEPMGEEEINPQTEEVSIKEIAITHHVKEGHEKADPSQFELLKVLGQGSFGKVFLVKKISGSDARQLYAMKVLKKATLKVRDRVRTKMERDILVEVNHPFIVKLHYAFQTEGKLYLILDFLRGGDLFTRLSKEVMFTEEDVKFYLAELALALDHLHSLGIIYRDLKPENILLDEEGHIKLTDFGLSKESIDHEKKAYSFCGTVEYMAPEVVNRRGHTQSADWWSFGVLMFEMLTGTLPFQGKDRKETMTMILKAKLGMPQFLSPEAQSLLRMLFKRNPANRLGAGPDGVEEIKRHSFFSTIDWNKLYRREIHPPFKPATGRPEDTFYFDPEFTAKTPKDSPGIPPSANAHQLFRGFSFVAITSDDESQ
T16 sequence (P10721 26-976 V559D/T670I): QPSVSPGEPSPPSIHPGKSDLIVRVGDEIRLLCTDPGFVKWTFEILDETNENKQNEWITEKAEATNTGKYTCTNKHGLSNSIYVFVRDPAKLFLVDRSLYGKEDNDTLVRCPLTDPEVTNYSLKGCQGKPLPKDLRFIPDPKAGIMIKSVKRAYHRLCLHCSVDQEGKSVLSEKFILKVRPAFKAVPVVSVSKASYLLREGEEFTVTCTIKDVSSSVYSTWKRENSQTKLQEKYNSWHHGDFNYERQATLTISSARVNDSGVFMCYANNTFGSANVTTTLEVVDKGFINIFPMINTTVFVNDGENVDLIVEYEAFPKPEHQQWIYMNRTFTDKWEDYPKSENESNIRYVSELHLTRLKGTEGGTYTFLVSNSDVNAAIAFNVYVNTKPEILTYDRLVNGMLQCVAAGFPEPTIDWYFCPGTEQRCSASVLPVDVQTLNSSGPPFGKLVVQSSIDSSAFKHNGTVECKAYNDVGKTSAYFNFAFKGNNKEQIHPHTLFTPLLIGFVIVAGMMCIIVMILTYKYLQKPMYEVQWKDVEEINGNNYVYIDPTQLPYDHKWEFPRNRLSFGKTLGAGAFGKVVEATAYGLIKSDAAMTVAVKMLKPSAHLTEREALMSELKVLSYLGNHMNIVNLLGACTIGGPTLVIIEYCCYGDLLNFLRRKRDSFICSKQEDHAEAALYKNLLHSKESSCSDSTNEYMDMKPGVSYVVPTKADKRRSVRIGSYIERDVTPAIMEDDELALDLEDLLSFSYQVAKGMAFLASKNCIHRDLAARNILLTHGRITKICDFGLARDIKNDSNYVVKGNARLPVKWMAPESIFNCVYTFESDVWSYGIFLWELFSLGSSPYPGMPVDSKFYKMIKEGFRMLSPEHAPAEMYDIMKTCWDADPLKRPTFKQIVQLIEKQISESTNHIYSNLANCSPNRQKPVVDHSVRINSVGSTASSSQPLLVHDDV
T14 sequence (P36507 whole entry): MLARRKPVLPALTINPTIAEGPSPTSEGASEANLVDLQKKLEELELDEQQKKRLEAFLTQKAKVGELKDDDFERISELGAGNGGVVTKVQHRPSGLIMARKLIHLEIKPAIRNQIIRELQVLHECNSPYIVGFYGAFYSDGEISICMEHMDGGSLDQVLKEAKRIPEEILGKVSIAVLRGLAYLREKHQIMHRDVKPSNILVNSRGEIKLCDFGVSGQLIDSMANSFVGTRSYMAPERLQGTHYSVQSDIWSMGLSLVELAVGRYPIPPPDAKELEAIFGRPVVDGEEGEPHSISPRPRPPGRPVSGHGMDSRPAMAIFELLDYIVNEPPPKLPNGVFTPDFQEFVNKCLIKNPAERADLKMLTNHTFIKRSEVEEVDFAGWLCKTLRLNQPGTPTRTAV
T1 sequence (Q9BXA7 whole entry): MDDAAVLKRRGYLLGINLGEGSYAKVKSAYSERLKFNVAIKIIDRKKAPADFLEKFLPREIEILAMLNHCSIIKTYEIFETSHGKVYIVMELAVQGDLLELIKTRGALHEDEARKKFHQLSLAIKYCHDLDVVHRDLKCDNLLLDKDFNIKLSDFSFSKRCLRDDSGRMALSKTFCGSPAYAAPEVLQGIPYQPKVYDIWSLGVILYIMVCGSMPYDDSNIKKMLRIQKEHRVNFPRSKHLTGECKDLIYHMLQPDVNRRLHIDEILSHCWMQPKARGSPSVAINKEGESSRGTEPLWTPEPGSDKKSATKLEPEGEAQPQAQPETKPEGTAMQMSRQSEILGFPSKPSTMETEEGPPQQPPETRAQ

Structure (SMILES): Cc1nc2ccc(-c3ccnc4ccccc34)c(C)c2c(=O)[nH]1 [compound 21, 2,5-Dimethyl-6-(quinolin-4-yl)quinazolin-4(3H)-one]
- remaining binding at 1 µM [1]: 100%
- remaining binding at 1 µM [2]: 100%
- remaining binding at 1 µM [3]: 94%
- remaining binding at 1 µM [4]: 90%
- remaining binding at 1 µM [5]: 100%
- remaining binding at 1 µM [6]: 91%
- remaining binding at 1 µM [7]: 100%
- remaining binding at 1 µM [8]: 98%
- remaining binding at 1 µM [9]: 93%
- remaining binding at 1 µM [10]: 65%
- remaining binding at 1 µM [11]: 100%
- remaining binding at 1 µM [12]: 98%
- remaining binding at 1 µM [13]: 91%
- remaining binding at 1 µM [14]: 79%
- remaining binding at 1 µM [15]: 99%
- remaining binding at 1 µM [16]: 98%
- remaining binding at 1 µM [17]: 100%
- remaining binding at 1 µM [18]: 77%
- remaining binding at 1 µM [19]: 98%
- remaining binding at 1 µM [20]: 87%
- remaining binding at 1 µM [21]: 90%
- remaining binding at 1 µM [22]: 75%
- remaining binding at 1 µM [23]: 100%
- remaining binding at 1 µM [24]: 88%
- remaining binding at 1 µM [25]: 100%
- remaining binding at 1 µM [26]: 100%
- remaining binding at 1 µM [27]: 98%
- remaining binding at 1 µM [28]: 79%
- remaining binding at 1 µM [29]: 89%
- remaining binding at 1 µM [30]: 92%
- remaining binding at 1 µM [31]: 97%
- remaining binding at 1 µM [32]: 94%
- remaining binding at 1 µM [33]: 100%
- remaining binding at 1 µM [34]: 100%
- remaining binding at 1 µM [35]: 93%
- remaining binding at 1 µM [36]: 95%
- remaining binding at 1 µM [37]: 95%
- remaining binding at 1 µM [38]: 98%
- remaining binding at 1 µM [39]: 96%
